Source: PubChem BioAssay AID248 (DTP/NCI, 2004)
“And” between values parts separate entries of the source, which are not always exact repeats. Equal values may be shown once. Toxic doses and inconclusive results are not listed.

Tested on: L1210 leukemia ip in BDF1 mice, survival T/C
Test: NCI In Vivo Anticancer Drug Screen. Data for tumor model L1210 Leukemia (intraperitoneal) in B6D2F1 (BDF1) mice
Conditions: endpoint: mean survival time, higher = longer survival
How it was run: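 Mice bearing the transplanted tumor received compound or vehicle. Survival of the treated group was divided by that of the vehicle-treated control group to give the ratio.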

[1] = dose: 50.0 mg/kg/injection, schedule: Q01DX009 (ip), vehicle: Klucel (hydroxypropylcellulose) (HPC)
[2] = dose: 100.0 mg/kg/injection, schedule: Q01DX009 (ip), vehicle: Klucel (hydroxypropylcellulose) (HPC)
[3] = dose: 100.0 mg/kg/injection, schedule: Q04DX003 (ip), vehicle: Klucel (hydroxypropylcellulose) (HPC)
[4] = dose: 200.0 mg/kg/injection, schedule: Q04DX003 (ip), vehicle: Klucel (hydroxypropylcellulose) (HPC)
[5] = dose: 50.0 mg/kg/injection, schedule: Q04DX002 (ip), vehicle: saline
[6] = dose: 100.0 mg/kg/injection, schedule: Q04DX002 (ip), vehicle: saline
[7] = dose: 100.0 mg/kg/injection, schedule: Q04DX003 (ip), vehicle: saline with Tween-80
[8] = dose: 100.0 mg/kg/injection, schedule: Q01DX001 (ip), vehicle: saline
[9] = dose: 200.0 mg/kg/injection, schedule: Q01DX001 (ip), vehicle: saline
[10] = dose: 100.0 mg/kg/injection, schedule: Q01DX001 (ip), vehicle: carboxymethylcellulose (CMC)
[11] = dose: 200.0 mg/kg/injection, schedule: Q01DX001 (ip), vehicle: carboxymethylcellulose (CMC)
[12] = dose: 400.0 mg/kg/injection, schedule: Q01DX001 (ip), vehicle: carboxymethylcellulose (CMC)
[13] = dose: 50.0 mg/kg/injection, schedule: Q01DX009 (ip), vehicle: saline with Tween-80
[14] = dose: 100.0 mg/kg/injection, schedule: Q01DX009 (ip), vehicle: saline with Tween-80

`CCNc1ccc(/C=C2\C=Cc3ccccc32)cc1` was tested, and the T/C (dose: 25.0 mg/kg/injection, schedule: Q01DX009 (ip), vehicle: Klucel (hydroxypropylcellulose) (HPC)) was 96 % of control, the T/C [1] was 102 % of control and the T/C (dose: 75.0 mg/kg/injection, schedule: Q01DX001 (ip), vehicle: olive oil, sesame oil, peanut oil) was 103 % of control. For the same compound, the T/C [2] was 96 % of control and the T/C (dose: 150.0 mg/kg/injection, schedule: Q01DX001 (ip), vehicle: olive oil, sesame oil, peanut oil) was 108 % of control.

With `c1ccc(-c2cnoc2-c2ccccc2)cc1` the T/C [2] was 107 % of control, the T/C [3] was 111 % of control and the T/C (dose: 200.0 mg/kg/injection, schedule: Q01DX009 (ip), vehicle: Klucel (hydroxypropylcellulose) (HPC)) was 106 % of control. For the same compound, the T/C [4] was 95 % of control, the T/C (dose: 400.0 mg/kg/injection, schedule: Q01DX009 (ip), vehicle: Klucel (hydroxypropylcellulose) (HPC)) was 102 % of control and the T/C (dose: 400.0 mg/kg/injection, schedule: Q04DX003 (ip), vehicle: Klucel (hydroxypropylcellulose) (HPC)) was 101 % of control.

`CC(C)(C)CNC(C)(C)C` was tested, and the T/C (dose: 5.0 mg/kg/injection, schedule: Q01DX001 (ip), vehicle: saline) was 109 % of control, the T/C (dose: 10.0 mg/kg/injection, schedule: Q01DX001 (ip), vehicle: saline) was 103 % of control and the T/C (dose: 20.0 mg/kg/injection, schedule: Q01DX001 (ip), vehicle: saline) was 100 % of control. The T/C (dose: 40.0 mg/kg/injection, schedule: Q01DX001 (ip), vehicle: saline) was 103 % of control, the T/C [5] was 112 % of control and the T/C (dose: 80.0 mg/kg/injection, schedule: Q01DX001 (ip), vehicle: saline) was 105 % of control. The T/C [6] was 104 % of control and the T/C (dose: 200.0 mg/kg/injection, schedule: Q04DX002 (ip), vehicle: saline) was 95 % of control.

In the case of `CC(C)OCCSP(SCCOC(C)C)SCCOC(C)C`, the T/C (dose: 25.0 mg/kg/injection, schedule: Q04DX003 (ip), vehicle: saline with Tween-80) is reported as 96 % of control, the T/C (dose: 50.0 mg/kg/injection, schedule: Q04DX003 (ip), vehicle: saline with Tween-80) is reported as 107 % of control and the T/C [7] is reported as 96 % of control.

`CC(c1c[nH]c2ccccc12)C(N)C(=O)O` (stereo unspecified) was tested, and the T/C (dose: 100.0 mg/kg/injection, schedule: Q04DX003 (ip), vehicle: saline) was 95 % of control and 93 % of control, the T/C (dose: 200.0 mg/kg/injection, schedule: Q04DX003 (ip), vehicle: saline) was 98 % of control and 92 % of control and the T/C (dose: 400.0 mg/kg/injection, schedule: Q04DX003 (ip), vehicle: saline) was 95 % of control and 97 % of control.

In the case of `Nc1nc(Cl)c(CCCCc2ccccc2)c(C(=O)O)n1`, the T/C (dose: 100.0 mg/kg/injection, schedule: Q01DX001 (ip), vehicle: Klucel (hydroxypropylcellulose) (HPC)) is reported as 93 % of control, the T/C (dose: 200.0 mg/kg/injection, schedule: Q01DX001 (ip), vehicle: Klucel (hydroxypropylcellulose) (HPC)) is reported as 91 % of control and the T/C (dose: 400.0 mg/kg/injection, schedule: Q01DX001 (ip), vehicle: Klucel (hydroxypropylcellulose) (HPC)) is reported as 101 % of control.

With `COc1ccc(/C=C(\SS/C(=C/c2ccc(OC)cc2)C(=O)O)C(=O)O)cc1` the T/C [8] was 89 % of control and the T/C [9] was 94 % of control.

For `COC(=O)C(Cl)(Cl)C1(c2ccccc2)OCC(C)(C)N1C(=O)C(Cl)Cl` (stereo unspecified), the T/C [7] was 115 % of control, the T/C (dose: 200.0 mg/kg/injection, schedule: Q04DX003 (ip), vehicle: saline with Tween-80) was 94 % of control and the T/C (dose: 400.0 mg/kg/injection, schedule: Q04DX003 (ip), vehicle: saline with Tween-80) was 103 % of control.

With `CCCCN=C(N)c1ccc(NC(=O)c2ccc(C(=O)Nc3ccc(C(N)=NCCCC)cc3)cc2)cc1` the T/C (dose: 6.0 mg/kg/injection, schedule: Q01DX001 (ip), vehicle: methylcellulose (MC)) was 110 % of control, the T/C (dose: 6.0 mg/kg/injection, schedule: Q01DX Z (ip), vehicle: methylcellulose (MC)) was 212 % of control and the T/C (dose: 12.0 mg/kg/injection, schedule: Q01DX Z (ip), vehicle: methylcellulose (MC)) was 100 % of control. For the same compound, the T/C (dose: 15.0 mg/kg/injection, schedule: Q01DX001 (ip), vehicle: methylcellulose (MC)) was 119 % of control.

With `CN(C)c1ccc(-c2ccc(N(C)C)cc2)cc1` the T/C (dose: 50.0 mg/kg/injection, schedule: Q01DX001 (ip), vehicle: carboxymethylcellulose (CMC)) was 100 % of control, the T/C [10] was 100 % of control and the T/C [11] was 96 % of control. For the same compound, the T/C [12] was 106 % of control.

In the case of `NC1=C(c2ccccc2)C(=O)C(N)=C(c2ccccc2)C1=O`, the T/C [10] is reported as 96 % of control, the T/C [11] is reported as 88 % of control and the T/C [12] is reported as 88 % of control.

With `O=C(C1=CN(CC(O)c2ccccc2)CCC1)c1cc2ccccc2n1S(=O)(=O)c1ccccc1` (stereo unspecified) the T/C (dose: 100.0 mg/kg/injection, schedule: Q04DX002 (ip), vehicle: saline with Tween-80) was 97 % of control, the T/C (dose: 200.0 mg/kg/injection, schedule: Q04DX002 (ip), vehicle: saline with Tween-80) was 94 % of control and the T/C (dose: 400.0 mg/kg/injection, schedule: Q04DX002 (ip), vehicle: saline with Tween-80) was 94 % of control.

`COCC(=O)Nc1ccc(Cl)c(Cl)c1` was tested, and the T/C [10] was 100 % of control, the T/C [11] was 92 % of control and the T/C [12] was 97 % of control.

`CN(C)CCC=C1c2ccccc2C=Cc2ccccc21` was tested, and the T/C (dose: 3.12 mg/kg/injection, schedule: Q01DX009 (ip), vehicle: saline) was 98 % of control, the T/C (dose: 6.25 mg/kg/injection, schedule: Q01DX009 (ip), vehicle: saline) was 93 % of control and 104 % of control and the T/C (dose: 12.5 mg/kg/injection, schedule: Q01DX009 (ip), vehicle: saline) was 107 % of control and 96 % of control. For the same compound, the T/C (dose: 25.0 mg/kg/injection, schedule: Q01DX009 (ip), vehicle: saline) was 98 % of control and 101 % of control, the T/C (dose: 25.0 mg/kg/injection, schedule: Q04DX003 (ip), vehicle: saline) was 112 % of control and 103 % of control and the T/C (dose: 50.0 mg/kg/injection, schedule: Q01DX009 (ip), vehicle: saline) was 109 % of control. For the same compound, the T/C (dose: 50.0 mg/kg/injection, schedule: Q04DX003 (ip), vehicle: saline) was 98 % of control and 105 % of control.

In the case of `CCC(C)(C)c1ccc(O)cc1`, the T/C [13] is reported as 102 % of control and the T/C [14] is reported as 100 % of control.

With `Cc1ccc(S(=O)(=O)NCC(=O)NCC(=O)Oc2c(Cl)c(Cl)c(Cl)c(Cl)c2Cl)cc1` the T/C (dose: 100.0 mg/kg/injection, schedule: Q01DX001 (ip), vehicle: water) was 95 % of control, the T/C (dose: 200.0 mg/kg/injection, schedule: Q01DX001 (ip), vehicle: water) was 96 % of control and the T/C (dose: 400.0 mg/kg/injection, schedule: Q01DX001 (ip), vehicle: water) was 95 % of control.

With `CC1=NNC(c2ccco2)C1` (stereo unspecified) the T/C [8] was 91 % of control, the T/C [9] was 94 % of control and the T/C (dose: 400.0 mg/kg/injection, schedule: Q01DX001 (ip), vehicle: saline) was 100 % of control.

In the case of `CCCCCCN1CCCC(OC(=O)N(C)C)C1` (stereo unspecified), the T/C (dose: 25.0 mg/kg/injection, schedule: Q04DX002 (ip), vehicle: saline) is reported as 113 % of control, the T/C [5] is reported as 103 % of control and the T/C [6] is reported as 100 % of control and 104 % of control.

`CCN(CC)CCOC(=O)N1c2ccccc2Sc2ccccc21` was tested, and the T/C (dose: 25.0 mg/kg/injection, schedule: Q01DX009 (ip), vehicle: saline with Tween-80) was 100 % of control, the T/C [1] was 102 % of control and the T/C [13] was 103 % of control. For the same compound, the T/C [2] was 102 % of control, the T/C [14] was 103 % of control and the T/C [3] was 98 % of control. The T/C [7] was 93 % of control and the T/C [4] was 93 % of control.
